Data: ChEMBL document CHEMBL1201862, “PubChem BioAssay data set” (2004)
Activity calls are given as the source filed them.

Key:
Paired box protein Pax-8 = Paired box protein Pax-8 (Homo sapiens, UniProt Q06710); assay: PAX8 transcriptional activity inhibition in RMG-I – RMG-I cells, luciferase, cherry-pick, dose response (AID 687027); format: functional, cell-based;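 further: luciferase reporter driven by Pax8 target thyroperoxidase promoter measured by SteadyGlo luminescence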
[1] = general cell-killing toxicity readout – plate reader, dry powder samples, cytotoxicity control for PAX8 inhibitor project, dose response (AID 743021); format: functional, cell-based
Beta-lactamase [2] = biological target: Beta-lactamase (Salmonella choleraesuis (strain SC-B67), UniProt Q5J463); assay: Epi-absorbance-based counterscreen for selective VIM-2 inhibitors: dose response biochemical high throughput screening assay to identify inhibitors of TEM-1 serine-beta-lactamase.
Beta-lactamase [3] = biological target: T1, Beta-lactamase (Pseudomonas aeruginosa, UniProt Q79MP6); assay: inhibition of IMP-1 beta-lactamase activity – biochemical, epi-absorbance, selectivity assay for VIM-2 inhibitor project, dose response (AID 1920)
Beta-lactamase [4] = biological target: T1, Beta-lactamase; assay: […] counterscreen for selective VIM-2 inhibitors: dose response biochemical high throughput screening assay to identify inhibitors of IMP-1 metallo-beta-lactamase.
Beta-galactosidase = Beta-galactosidase (Escherichia coli, UniProt Q8VNN2); assay: Dose response counterscreen for EBI2 assay utilizing the enzyme, b-galactosidase.; format: functional
Bcl-2-like protein 10 = biological target: T2, Bcl-2-like protein 10 (Homo sapiens, UniProt Q9HD36); assay: Bcl-B/TR3 peptide binding disruption – biochemical, fluorescence polarization, FITC-TR3 peptide, selectivity assay for Bfl-1 inhibitor project, primary screen (AID 748);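 further: fluorescence polarization from a fluorescein-labelled TR3 peptide binding purified Bcl-B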
T2 sequence (Q9HD36 whole entry): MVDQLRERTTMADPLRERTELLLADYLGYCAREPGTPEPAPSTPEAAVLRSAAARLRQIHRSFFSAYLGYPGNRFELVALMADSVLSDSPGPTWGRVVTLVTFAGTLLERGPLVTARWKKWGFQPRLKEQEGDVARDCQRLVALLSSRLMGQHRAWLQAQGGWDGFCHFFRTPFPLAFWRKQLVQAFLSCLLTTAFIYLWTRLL

cells [5] = conditions: A549
cells [6] = assay: cells
HEK293 = assay: viability loss in HEK293T cells – cell-based, ATP luminescence, cherry-pick samples, cytotoxicity control, dose response (AID 687005); format: functional; conditions: Homo sapiens;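 further: cells exposed to compound for 48 hours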
[7] = HEK293 Cytotoxicity Assay Measured in Cell-Based System Using Plate Reader - 7071-01_Inhibitor_Dose_CherryPick_Activity_Set2.; format: functional
Vero = assay: cells; format: functional; conditions: Chlorocebus sabaeus
[8] = biological target: T3, Methionyl-tRNA synthetase, putative (Trypanosoma brucei brucei, UniProt Q38C91); format: functional, Trypanosoma brucei brucei strain 927/4 GUTat10.1
[9] = Counterscreen for inhibitors of Trypanosoma brucei methionyl tRNA synthetase (MetRS): Luminescence-based cell-based high throughput dose response assay to identify compounds that are cytotoxic to Jurkat human T lymphocyte cells.; format: functional
[10] = biological target: T3, Methionyl-tRNA synthetase, putative; format: functional, Trypanosoma brucei brucei strain 927/4 GUTat10.1; remark: listed apart in the source
[11] = Late stage counterscreen for inhibitors of Trypanosoma brucei methionyl tRNA synthetase (MetRS): Luminescence-based cell-based high throughput dose response assay to identify compounds that are cytotoxic to Jurkat human T lymphocyte cells.; format: functional
Large T antigen = Large T antigen (Simian virus 40, UniProt P03070); format: functional, Betapolyomavirus macacae;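 further: Confirmatory-stage PubChem screen for compounds that inhibit SV40 T antigen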
INS1 = assay: INS-1E survival protection against cytokine death – cell-based, luminescence, retest, dose response (AID 449756); format: functional; conditions: Rattus norvegicus;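 further: cell death triggered by IL-1 beta plus TNF-alpha plus IFN-gamma mixture; protective hits raise ATP signal compared with cytokine alone wells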
[12] = viability loss in HeLa cells – cytotoxicity control for MgcRacGAP inhibitor project, dose response (AID 624300); format: functional
Protein Wnt-3a = Protein Wnt-3a (Mus musculus, UniProt P27467); assay: antagonism of Wnt3a pathway luciferase reporter – Wnt-LIGHT cells, luminescence, selectivity assay for Gli-SUFU antagonist project, dose response (AID 651570); format: functional; conditions: read-out: IC50_Mean;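 further: Wnt-LIGHT reporter cells stimulated with conditioned medium from Wnt3a-producing cells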
[13] = biological target: T4, Rac GTPase-activating protein 1 (Homo sapiens, UniProt Q9H0H5); assay: blockers of MgcRacGAP-driven Rac1 GTP hydrolysis – biochemical, ADP Hunter fluorescence, primary and confirmatory, confirmation (AID 624330); format: functional
T4 sequence (Q9H0H5 whole entry): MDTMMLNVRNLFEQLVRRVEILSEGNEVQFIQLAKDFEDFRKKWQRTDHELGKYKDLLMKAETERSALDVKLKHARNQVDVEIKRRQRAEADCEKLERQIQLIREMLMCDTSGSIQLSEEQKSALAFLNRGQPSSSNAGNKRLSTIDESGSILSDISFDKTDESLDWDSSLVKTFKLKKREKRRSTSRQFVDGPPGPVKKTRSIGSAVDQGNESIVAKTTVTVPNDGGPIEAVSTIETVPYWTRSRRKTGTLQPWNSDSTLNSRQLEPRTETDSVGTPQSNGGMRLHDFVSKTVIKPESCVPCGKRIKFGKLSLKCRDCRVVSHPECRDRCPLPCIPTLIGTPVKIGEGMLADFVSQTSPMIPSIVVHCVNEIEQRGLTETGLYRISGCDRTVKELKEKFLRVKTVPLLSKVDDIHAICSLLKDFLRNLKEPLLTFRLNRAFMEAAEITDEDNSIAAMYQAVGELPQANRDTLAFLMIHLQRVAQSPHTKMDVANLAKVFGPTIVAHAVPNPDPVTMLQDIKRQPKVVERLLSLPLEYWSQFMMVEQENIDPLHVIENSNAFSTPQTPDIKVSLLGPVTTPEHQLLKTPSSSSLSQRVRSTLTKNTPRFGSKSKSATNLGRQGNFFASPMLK

[14] = biological target: Matrix metalloproteinase-14 (Homo sapiens, UniProt P50281); assay: Dose Response confirmation of uHTS hits for a small molecule inhibitors of MT1-MMP activation in a fluorescence assay set 2.; format: functional
[15] = activation of miR-122 Renilla sensor silencing – cell-based, Huh7 psiCHECK-miR122, Renilla luciferase, cherry-picked, dose response (AID 651956); format: functional;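 further: huh7 hepatoma cells stably carrying a psiCHECK-2 miR-122 sensor plasmid; renilla luciferase signal reporting endogenous miR-122 activity after 48 h compound exposure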
[16] = COV362 cell viability loss – plate reader, dry powder, SA12, cytotoxicity control for PAX8 inhibitor project, dose response (AID 743144); format: functional, cell-based
[17] = toxicity toward immortalized ovarian surface epithelium – cell-based, plate reader, dry powder samples, cytotoxicity control for PAX8 inhibitor project, dose response (AID 743045); format: functional
[18] = reduced cellular PGC1a acetyl-lysine signal – cell-based, cherry-picked samples, dose response (AID 720514); format: functional;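 further: potency may reflect raised or lowered acetylation signal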
[19] = OVCAR-3 cell viability loss – plate reader, dry powder samples, PAX8 inhibitor project, dose response (AID 743044); format: functional, cell-based
[20] = IGROV1 cell killing – plate reader, dry powder samples, PAX8 inhibitor project, dose response (AID 743043); format: functional, cell-based; conditions: IGROV-1
[21] = OVCAR4 cell viability loss – plate reader, dry powder, SA11, cytotoxicity control for PAX8 inhibitor project, dose response (AID 743150); format: functional, cell-based; conditions: OVCAR-4
[22] = COV434 cell viability loss – plate reader, dry powder, SA7, cytotoxicity control for PAX8 inhibitor project, dose response (AID 743145); format: functional, cell-based
[23] = OV-90 cell viability loss – plate reader, dry powder, SA8, PAX8 inhibitor project, dose response (AID 743149); format: functional, cell-based
[24] = OVCAR8 cell viability loss – plate reader, dry powder samples, PAX8 project, dose response (AID 743197); format: functional, cell-based; conditions: OVCAR-8
[25] = PAX8-dependent cell viability loss – plate reader, dry powder, dose response (AID 743049); format: functional, cell-based
[26] = A2780 cell killing – plate reader, dry powder samples, cytotoxicity control, dose response (AID 743046); format: functional, cell-based

Chain of Paired box protein Pax-8 (Q06710 whole entry): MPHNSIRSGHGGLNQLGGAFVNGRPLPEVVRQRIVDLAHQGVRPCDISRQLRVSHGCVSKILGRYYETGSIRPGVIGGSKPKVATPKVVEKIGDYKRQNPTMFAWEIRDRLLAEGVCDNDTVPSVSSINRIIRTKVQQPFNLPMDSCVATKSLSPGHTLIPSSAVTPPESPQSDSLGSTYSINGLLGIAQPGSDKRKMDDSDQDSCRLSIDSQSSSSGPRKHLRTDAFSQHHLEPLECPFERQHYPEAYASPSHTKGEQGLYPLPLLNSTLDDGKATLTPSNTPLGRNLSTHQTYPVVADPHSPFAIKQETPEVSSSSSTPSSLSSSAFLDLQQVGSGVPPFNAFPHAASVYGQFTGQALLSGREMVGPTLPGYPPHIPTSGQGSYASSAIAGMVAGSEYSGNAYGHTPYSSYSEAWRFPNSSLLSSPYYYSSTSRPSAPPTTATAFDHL
T1 sequence (Q79MP6 whole entry): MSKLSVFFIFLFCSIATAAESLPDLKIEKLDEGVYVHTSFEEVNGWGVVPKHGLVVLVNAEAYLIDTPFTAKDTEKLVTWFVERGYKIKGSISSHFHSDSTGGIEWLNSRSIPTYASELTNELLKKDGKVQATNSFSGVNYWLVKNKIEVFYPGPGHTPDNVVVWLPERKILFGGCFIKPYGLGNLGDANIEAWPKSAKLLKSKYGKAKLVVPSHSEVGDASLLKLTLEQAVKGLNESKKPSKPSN
T3 sequence (Q38C91 whole entry): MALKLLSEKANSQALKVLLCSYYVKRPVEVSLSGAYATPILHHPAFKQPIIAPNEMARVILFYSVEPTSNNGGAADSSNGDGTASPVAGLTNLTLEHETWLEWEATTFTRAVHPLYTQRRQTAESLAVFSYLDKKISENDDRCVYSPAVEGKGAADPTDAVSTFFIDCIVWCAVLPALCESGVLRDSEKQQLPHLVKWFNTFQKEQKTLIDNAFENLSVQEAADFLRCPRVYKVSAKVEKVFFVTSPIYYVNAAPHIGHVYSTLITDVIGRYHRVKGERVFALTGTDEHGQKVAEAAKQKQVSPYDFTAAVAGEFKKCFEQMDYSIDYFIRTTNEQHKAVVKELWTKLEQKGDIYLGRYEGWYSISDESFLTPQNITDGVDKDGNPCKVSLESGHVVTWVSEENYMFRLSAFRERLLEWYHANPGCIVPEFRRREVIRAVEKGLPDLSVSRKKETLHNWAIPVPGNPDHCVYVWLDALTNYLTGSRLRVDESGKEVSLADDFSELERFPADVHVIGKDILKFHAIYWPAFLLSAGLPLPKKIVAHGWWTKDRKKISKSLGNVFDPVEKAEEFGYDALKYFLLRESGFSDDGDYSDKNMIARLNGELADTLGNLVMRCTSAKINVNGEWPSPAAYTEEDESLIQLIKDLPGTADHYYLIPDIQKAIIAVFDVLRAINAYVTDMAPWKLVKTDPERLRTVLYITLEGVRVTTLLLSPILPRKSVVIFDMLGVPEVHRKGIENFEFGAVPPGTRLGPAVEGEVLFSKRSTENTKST
Chain of Large T antigen (P03070 whole entry): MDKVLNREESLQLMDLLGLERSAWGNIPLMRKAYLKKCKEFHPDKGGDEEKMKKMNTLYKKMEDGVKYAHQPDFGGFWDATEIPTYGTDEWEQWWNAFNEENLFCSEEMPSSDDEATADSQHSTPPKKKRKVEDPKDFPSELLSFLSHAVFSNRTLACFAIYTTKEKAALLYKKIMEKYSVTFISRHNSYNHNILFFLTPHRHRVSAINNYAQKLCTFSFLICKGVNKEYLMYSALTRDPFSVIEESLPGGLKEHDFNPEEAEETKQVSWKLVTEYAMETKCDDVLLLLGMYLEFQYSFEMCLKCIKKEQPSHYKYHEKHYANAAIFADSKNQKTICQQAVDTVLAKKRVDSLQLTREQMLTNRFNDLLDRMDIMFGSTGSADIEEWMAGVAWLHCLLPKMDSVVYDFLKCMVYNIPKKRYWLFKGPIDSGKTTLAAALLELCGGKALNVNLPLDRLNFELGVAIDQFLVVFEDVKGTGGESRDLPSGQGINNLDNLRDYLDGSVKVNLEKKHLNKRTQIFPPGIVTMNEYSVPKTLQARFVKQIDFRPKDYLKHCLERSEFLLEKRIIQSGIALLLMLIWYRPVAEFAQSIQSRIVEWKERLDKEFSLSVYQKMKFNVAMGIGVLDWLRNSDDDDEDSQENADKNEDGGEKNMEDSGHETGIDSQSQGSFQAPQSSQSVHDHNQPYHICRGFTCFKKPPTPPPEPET
Chain of Beta-lactamase (Salmonella choleraesuis (strain SC-B67), UniProt Q5J463) (Q5J463 whole entry): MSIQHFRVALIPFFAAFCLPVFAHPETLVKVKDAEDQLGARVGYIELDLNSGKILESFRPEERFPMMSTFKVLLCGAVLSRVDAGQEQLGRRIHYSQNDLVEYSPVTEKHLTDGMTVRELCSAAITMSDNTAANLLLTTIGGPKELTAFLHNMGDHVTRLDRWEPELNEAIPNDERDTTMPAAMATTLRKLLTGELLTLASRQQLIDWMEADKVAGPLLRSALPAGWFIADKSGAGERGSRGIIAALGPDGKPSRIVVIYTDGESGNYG
Chain of Protein Wnt-3a (P27467 whole entry): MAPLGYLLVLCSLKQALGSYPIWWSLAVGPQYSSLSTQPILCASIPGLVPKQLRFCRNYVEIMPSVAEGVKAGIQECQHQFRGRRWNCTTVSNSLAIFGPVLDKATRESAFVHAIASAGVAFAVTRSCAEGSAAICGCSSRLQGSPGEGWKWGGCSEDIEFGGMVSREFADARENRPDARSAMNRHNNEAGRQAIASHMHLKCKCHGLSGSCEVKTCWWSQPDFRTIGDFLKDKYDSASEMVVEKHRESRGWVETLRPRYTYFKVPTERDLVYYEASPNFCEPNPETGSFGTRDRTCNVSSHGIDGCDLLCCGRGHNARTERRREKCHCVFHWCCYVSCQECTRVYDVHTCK
Chain of Beta-galactosidase (Q8VNN2 whole entry): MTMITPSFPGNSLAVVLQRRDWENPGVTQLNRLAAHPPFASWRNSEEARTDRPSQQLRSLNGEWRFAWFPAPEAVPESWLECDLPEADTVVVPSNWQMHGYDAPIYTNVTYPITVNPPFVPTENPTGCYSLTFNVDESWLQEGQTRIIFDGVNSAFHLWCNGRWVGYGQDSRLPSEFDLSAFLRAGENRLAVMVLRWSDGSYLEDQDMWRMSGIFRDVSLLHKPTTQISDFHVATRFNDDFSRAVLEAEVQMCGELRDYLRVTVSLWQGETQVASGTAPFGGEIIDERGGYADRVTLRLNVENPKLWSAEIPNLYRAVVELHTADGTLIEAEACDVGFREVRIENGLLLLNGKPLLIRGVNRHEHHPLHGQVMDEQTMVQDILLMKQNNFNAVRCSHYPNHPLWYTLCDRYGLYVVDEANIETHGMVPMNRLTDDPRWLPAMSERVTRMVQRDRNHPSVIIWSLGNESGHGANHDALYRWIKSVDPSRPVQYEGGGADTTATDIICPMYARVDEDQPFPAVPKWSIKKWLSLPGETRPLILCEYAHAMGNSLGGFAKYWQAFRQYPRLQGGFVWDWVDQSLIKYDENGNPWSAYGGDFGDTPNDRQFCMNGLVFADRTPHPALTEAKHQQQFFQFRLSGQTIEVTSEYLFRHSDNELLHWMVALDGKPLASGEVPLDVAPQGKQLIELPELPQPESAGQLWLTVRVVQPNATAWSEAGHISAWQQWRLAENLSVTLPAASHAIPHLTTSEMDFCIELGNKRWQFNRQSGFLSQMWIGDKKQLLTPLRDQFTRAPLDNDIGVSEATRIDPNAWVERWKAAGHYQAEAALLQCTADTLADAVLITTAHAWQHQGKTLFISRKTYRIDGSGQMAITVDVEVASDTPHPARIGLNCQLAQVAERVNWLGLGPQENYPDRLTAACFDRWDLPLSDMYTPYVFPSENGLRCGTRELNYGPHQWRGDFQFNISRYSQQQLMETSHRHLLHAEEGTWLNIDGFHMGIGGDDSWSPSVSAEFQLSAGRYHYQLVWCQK

## CC(C)(C)OC(=O)NCCCC[C@H](NC(=O)c1[nH]cnc1C(=O)Nc1ccc(CNC(=O)OC(C)(C)C)cc1)C(=O)OC(C)(C)C
Paired box protein Pax-8
  AC50: 4.41 µM (active)
[1]
  AC50: 7.72 µM (active)

## Cc1cccc(C(=O)Nc2nnc(SCC(=O)NCc3ccco3)s2)c1
Beta-lactamase [2]
  IC50: > 59.6 µM (inactive)
Beta-lactamase [3]
  IC50: > 59.6 µM (inactive)
Beta-lactamase [4]
  IC50: > 59.6 µM (inactive)

## O=C(COc1ccc(Cl)cc1)N1CCN(Cc2ccc([N+](=O)[O-])cc2)CC1
Beta-galactosidase
  IC50: > 80 µM (inactive)

## Cn1c(=N)c(S(=O)(=O)c2ccccc2)cc2c(=O)n3ccccc3nc21
Bcl-2-like protein 10
  IC50: > 12.5 µM (inactive)
Cells [5]
  AC50: > 52 µM (inactive)
Cells [6]
  AC50: 1.26 µM (active)

## Cc1cccc(C)c1NC(=O)CNC(=O)C(C)N1CCCCC1 (stereo unspecified)
HEK293
  AC50: > 52 µM (inactive)
[7]
  AC50: > 52 µM (inactive)

## O=C(C[C@H]1C(=O)N(Cc2ccccc2)C[C@@H]1c1ccc(Br)cc1)Nc1ccc(Br)cc1
Vero
  CC50: > 25 µM (active)
[8]
  IC50: 3.46 µM (active)
[9]
  IC50: 83.3 µM (inactive)
[10]
  IC50: 1.78 µM (active)
[11]
  IC50: 66.5 µM (inactive)

## CN1/C(=C\C=N\NC(=O)c2ccc(O)cc2)C(C)(C)c2ccccc21
Large T antigen
  IC50: 20.5 µM (active)
INS1
  AC50: 5.43 µM (active)
[12]
  CC50: 100 µM (active)
Protein Wnt-3a
  IC50: 15.4 µM (active)
[13]
  IC50: 60.3 µM (active)
[14]
  IC50: 31.1 µM (inactive)

## CN(C[C@H]1N[C@@H](CO)[C@@H]1c1ccc(C2=CCCC2)cc1)C(=O)c1ccc(F)cc1
[15]
  AC50: 13 µM (active)
Paired box protein Pax-8
  AC50: 0.895 µM (active)
[16]
  AC50: 3.27 µM (active)
[17]
  AC50: 3.25 µM (active)
[18]
  AC50: 0.25 µM (active)
[19]
  AC50: 5.63 µM (active)
[20]
  AC50: 4.15 µM (active)
[21]
  AC50: 1.57 µM (active)
[22]
  AC50: 5.17 µM (active)
[23]
  AC50: 9.17 µM (active)
[24]
  AC50: 4.04 µM (active)
[25]
  AC50: 2.21 µM (active)

## C[C@@H]1CCCCO[C@@H](CN(C)Cc2ccc(Cl)c(Cl)c2)[C@H](C)CN([C@@H](C)CO)C(=O)c2cc(NC(=O)Nc3ccccc3)ccc2O1
Paired box protein Pax-8
  AC50: 11.6 µM (active)
[26]
  AC50: 3.09 µM (active)
